“And” between values parts separate entries of the source, which are not always exact repeats. Identical values can stand only once.
What was measured:
[1] = tested on: yeast bc 1 complex, Plasmodium-like Qo mutant PF11; experiment: Quinol:cytochrome c reductase activity, inhibitor titration, Plasmodium-like mutant PF11; assay type: biochemical, Saccharomyces cerevisiae; settings: for IC50: PF11, ratio of IC50 on concentration of monomeric bc 1 complex
Experimental: (§1) The mutants were generated by side-directed mutagenesis and mitochondrial transformation as described in [15]. They have identical nuclear and mitochondrial genomes with the exception of the mutations introduced in the cytochrome b gene.
(§2) Yeast mitochondria were prepared as in [16]. Bovine mitochondrial samples were kindly given by Prof. Peter Rich (UCL, UK). Quinol:cytochrome c reductase activity measurements were performed in 10mM potassium phosphate pH 7 and 20µM equine cytochrome c at room temperature. Mitochondria were diluted to 5–30 nM bc 1 complex. Concentrations of monomeric bc 1 complex were determined from the cytochrome b α-band in dithionite-reduced optical spectra, using ε = 28.5 mM^−1.cm^−1 at 562 nm minus 575 nm. Activity was initiated by the addition of 20µM decylubiquinol. Cytochrome c reduction was recorded at 550 nm versus 540 nm over a 3-min time-course in a Beckmann DU 640 spectrophotometer. Initial rates were measured. From these rates, turnover numbers (TN) were calculated as cytochrome c reduced per bc 1 complex per second.
(§3) Cytochrome c reduction activity was measured as described above in presence of increasing concentrations of inhibitors (six to ten different concentrations). Each measurement was repeated at least twice and averaged. […] The mid-point inhibition concentrations (IC50) were determined from the titrations. As the titrations were performed using mitochondrial samples containing different concentrations of bc 1 complex (5–30 nM), the results were presented as ratio of IC50 on the concentration of bc 1 complex.

[2] = biological target: T1, yeast bc 1 complex, cytochrome b mutant Y279S (Saccharomyces cerevisiae, UniProt P00163, Y279S); experiment: Quinol:cytochrome c reductase activity, inhibitor titration, mutant Y279S; assay type: biochemical; settings: ratio of IC50 on concentration of monomeric bc 1 complex
T1 construct: Yeast mitochondria were prepared as in; expressed in transfected cells; host or cells: Saccharomyces cerevisiae, mitochondrial transformation; mitochondria
Experimental: as §1, §2, §3

[3] = tested on: yeast bc 1 complex, Plasmodium-like Qo mutant PF8; experiment: Quinol:cytochrome c reductase activity, inhibitor titration, Plasmodium-like mutant PF8; assay type: biochemical, Saccharomyces cerevisiae; settings: for IC50: ratio of IC50 on concentration of monomeric bc 1 complex
Experimental: as §1, §2, §3

[4] = biological target: T2, bovine bc 1 complex (Bos taurus, UniProt P00157); experiment: Quinol:cytochrome c reductase activity, inhibitor titration, bovine mitochondria; assay type: biochemical; settings: bovine enzyme; ratio of IC50 on concentration of monomeric bc 1 complex
T2 construct: Peter Rich; from tissue
Experimental: as §2, §3

[5] = biological target: T3, yeast bc 1 complex, Plasmodium-like Qo mutant PF2 (Saccharomyces cerevisiae, UniProt P00163, C133V/C134L/H141Y/L275F/V135P/Y136W); experiment: Quinol:cytochrome c reductase activity, inhibitor titration, Plasmodium-like mutant PF2; assay type: biochemical; settings: ratio of IC50 on concentration of monomeric bc 1 complex
T3 construct: Yeast mitochondria were prepared as in; expressed in transfected cells; host or cells: Saccharomyces cerevisiae, mitochondrial transformation; mitochondria
Experimental: as §1, §2, §3

[6] = tested on: yeast bc 1 complex, Plasmodium-like Qo mutant PF12 (PF11 + Y279S); experiment: Quinol:cytochrome c reductase activity, inhibitor titration, Plasmodium-like mutant PF12; assay type: biochemical, Saccharomyces cerevisiae; settings: ratio of IC50 on concentration of monomeric bc 1 complex
Experimental: as §1, §2, §3

[7] = biological target: T4, Yeast WT bc 1 complex (Saccharomyces cerevisiae, UniProt P00163); experiment: Quinol:cytochrome c reductase activity, inhibitor titration, yeast WT mitochondria; assay type: biochemical; settings: ratio of IC50 on concentration of monomeric bc 1 complex
T4 construct: Yeast mitochondria were prepared as in; endogenous in cells; host or cells: Saccharomyces cerevisiae mitochondria
Experimental: as §2, §3

[8] = biological target: T5, yeast bc 1 complex, cytochrome b mutant L275F (Saccharomyces cerevisiae, UniProt P00163, L275F); experiment: Quinol:cytochrome c reductase activity, inhibitor titration, mutant L275F; assay type: biochemical; settings: for IC50: L275F, ratio of IC50 on concentration of monomeric bc 1 complex
T5 construct: Yeast mitochondria were prepared as in; expressed in transfected cells; host or cells: Saccharomyces cerevisiae, mitochondrial transformation; mitochondria
Experimental: as §1, §2, §3

[9] = biological target: T6, yeast bc 1 complex, Plasmodium-like Qo mutant PF1 (Saccharomyces cerevisiae, UniProt P00163, C133V/C134L/H141Y/V135P/Y136W); experiment: Quinol:cytochrome c reductase activity, inhibitor titration, Plasmodium-like mutant PF1; assay type: biochemical; settings: ratio of IC50 on concentration of monomeric bc 1 complex
T6 construct: Yeast mitochondria were prepared as in; expressed in transfected cells; host or cells: Saccharomyces cerevisiae, mitochondrial transformation; mitochondria
Experimental: as §1, §2, §3

[10] = tested on: P. falciparum bc 1 complex; settings: P. falciparum enzyme; not expressed as molar ratio; cited from earlier work
[11] = biological target: T7, yeast bc 1 complex, cytochrome b mutant F278A (Saccharomyces cerevisiae, UniProt P00163, F278A); experiment: Quinol:cytochrome c reductase activity, inhibitor titration, mutant F278A; assay type: biochemical; settings: for IC50 increase (resistance) vs WT: F278A vs yeast WT; for IC50: F278A, ratio of IC50 on concentration of monomeric bc 1 complex
T7 construct: Yeast mitochondria were prepared as in; expressed in transfected cells; host or cells: Saccharomyces cerevisiae, mitochondrial transformation; mitochondria
Experimental: as §1, §2, §3

[12] = biological target: T8, yeast bc 1 complex, human-like Qo mutant HSc (Saccharomyces cerevisiae, UniProt P00163, C133V/C134L/F278A/H141F/L275F/M295L/V135P/Y136W); experiment: Quinol:cytochrome c reductase activity, inhibitor titration, human-like mutant HSc; assay type: biochemical; settings: for IC50: HSc, ratio of IC50 on concentration of monomeric bc 1 complex
T8 construct: Yeast mitochondria were prepared as in; expressed in transfected cells; host or cells: Saccharomyces cerevisiae, mitochondrial transformation; mitochondria
Experimental: as §1, §2, §3

[13] = biological target: yeast bc 1 complex, human-like Qo mutant HSa; experiment: Quinol:cytochrome c reductase activity, inhibitor titration, human-like mutant HSa; assay type: biochemical, Saccharomyces cerevisiae; settings: ratio of IC50 on concentration of monomeric bc 1 complex
Experimental: as §1, §2
Cytochrome c reduction activity was measured as described above in presence of increasing concentrations of inhibitors (six to ten different concentrations). Each measurement was repeated at least twice and averaged. […] The mid-point inhibition concentrations (IC50) were determined from the titrations. […]

[14] = tested on: yeast bc 1 complex, PF11 with deletion Δ158–161; experiment: Quinol:cytochrome c reductase activity, PF11 with deletion Δ158–161; assay type: biochemical, Saccharomyces cerevisiae; settings: deletion introduced in PF11; not shown
Experimental: as §2, §3

[15] = biological target: T9, yeast bc 1 complex, cytochrome b mutant M295L (Saccharomyces cerevisiae, UniProt P00163, M295L); experiment: Quinol:cytochrome c reductase activity, inhibitor titration, mutant M295L; assay type: biochemical; settings: for IC50: M295L, ratio of IC50 on concentration of monomeric bc 1 complex
T9 construct: Yeast mitochondria were prepared as in; expressed in transfected cells; host or cells: Saccharomyces cerevisiae, mitochondrial transformation; mitochondria
Experimental: as §1, §2, §3

[16] = biological target: T5, yeast bc 1 complex, cytochrome b mutant L275F; settings: vs yeast WT; cited from earlier work
[17] = tested on: Rhodabacter capsulatus bc 1 complex; settings: bacterial complex, phenylalanine naturally at position 275; cited from earlier work
[18] = biological target: T10, yeast bc 1 complex, human-like Qo mutant HSb (Saccharomyces cerevisiae, UniProt P00163, F278A/L275F/M295L); experiment: Quinol:cytochrome c reductase activity, inhibitor titration, human-like mutant HSb; assay type: biochemical; settings: for IC50: HSb, ratio of IC50 on concentration of monomeric bc 1 complex
T10 construct: Yeast mitochondria were prepared as in; expressed in transfected cells; host or cells: Saccharomyces cerevisiae, mitochondrial transformation; mitochondria
Experimental: as §1, §2, §3

[19] = tested on: Rhodabacter capsulatus bc 1 complex, mutations I281M and R283K (yeast numbering); set-up: method as in PMID 15917236; settings: bacterial complex with I281M and R283K; cited from earlier work
[20] = tested on: bovine bc 1 complex; experiment: Quinol:cytochrome c reductase activity, inhibitor titration, bovine mitochondria; assay type: biochemical; settings: bovine vs yeast WT
Experimental: as §2, §3

[21] = tested on: P. falciparum; settings: read-out: IC50, P. falciparum proliferation; cited from earlier work

With `CCOC(=O)c1c[nH]c2cc(Oc3ccc(OC(F)(F)F)cc3)ccc2c1=O` [RCQ06] the IC50 [1] was 25 molar ratio, the IC50 [2] was >500 molar ratio and the IC50 [3] was 40 molar ratio. For the same compound, the IC50 [4] was 40 molar ratio, the IC50 [5] was 10 molar ratio and the IC50 [6] was >500 molar ratio. For the same compound, the IC50 [7] was >500 molar ratio, the “increase in sensitivity vs WT” value ([8]; L275F vs yeast WT) was “over 50 fold” and the IC50 [8] was 10 molar ratio. The IC50 [9] was >500 molar ratio and the IC50 [10] was ~1.3 nM and 1.3 nM.
In the case of `O=C1C(O)=C([C@H]2CC[C@H](c3ccc(Cl)cc3)CC2)C(=O)c2ccccc21` [atovaquone], the IC50 [1] is reported as 3 molar ratio, the IC50 [2] is reported as >850 molar ratio and the IC50 [3] is reported as 16 molar ratio. For the same compound, the IC50 [4] was 75 molar ratio, the IC50 [5] was 10 molar ratio and the “IC50 increase (resistance) vs WT” value [11] was 9 fold. For the same compound, the IC50 [11] was 35 molar ratio, the IC50 [6] was >850 molar ratio and the “resistance vs WT enzyme” value ([12]; HSc vs yeast WT) was 15 fold. For the same compound, the IC50 [12] was 60 molar ratio, the IC50 [13] was 200 molar ratio and the “effect of deletion Δ158–161 on sensitivity” value [14] was “little effect”. For the same compound, the “IC50 increase (resistance) vs WT” value ([15]; M295L vs yeast WT) was 2.5 fold, the IC50 [15] was 10 molar ratio and the IC50 [7] was 4 molar ratio. The “IC50 increase (resistance) vs WT” value ([8]; L275F vs yeast WT) was 35 fold, the IC50 [8] was 150 molar ratio and the IC50 [9] was 2 molar ratio. For the same compound, the “decrease in sensitivity on introducing L275F in yeast bc 1 complex” value [16] was “over 20 fold”, the IC50 [17] was ~30 nM and the IC50 [18] was 170 molar ratio. The IC50 [10] was ~3 nM and 3 nM and the IC50 [19] was 10 nM.
For `CO/C=C(/C(=O)OC)c1ccccc1Oc1cc(Oc2ccccc2C#N)ncn1` [azoxystrobin], the IC50 [1] was 40 molar ratio, the “lowering of resistance by changes in position 133 to 141” value ([1]; PF11 vs PF8) was 5 fold and the IC50 [2] was 60 molar ratio. For the same compound, the “increase in resistance caused by modifications of residues 283 to 299” value [3] was 10 fold, the IC50 [3] was 220 molar ratio and the “resistance of the mammalian enzyme compared to yeast enzyme” value [20] was 9 fold. For the same compound, the IC50 [4] was 180 molar ratio, the IC50 [5] was 16 molar ratio and the “IC50 increase (resistance) vs WT” value [11] was 6 fold. For the same compound, the IC50 [11] was 120 molar ratio, the IC50 [6] was 30 molar ratio and the IC50 [12] was 140 molar ratio. For the same compound, the IC50 [13] was 130 molar ratio, the IC50 [15] was 45 molar ratio and the IC50 [7] was 20 molar ratio. For the same compound, the IC50 [8] was 30 molar ratio, the IC50 [9] was 5 molar ratio and the “resistance conferred by triple mutation” value ([18]; HSb vs yeast WT) was 8 fold. For the same compound, the IC50 [18] was 160 molar ratio and the IC50 [21] was 15 nM.
In the case of antimycin, the “sensitivity compared with that of the WT control” value ([1]; PF11 vs WT, data not shown) is reported as “No or very little difference” and the “sensitivity compared with that of the WT control” value ([12]; HSc vs WT, data not shown) is reported as “No or very little difference”.

Reference: article PMC3741170, “Reconstructing the Qo Site of Plasmodium falciparum bc 1 Complex in the Yeast Enzyme” (PLoS ONE, 2013)
